The text below walks through data of ChEMBL document CHEMBL1759887, “Discovery of indole alkaloids with cannabinoid CB1 receptor antagonistic activity” (Bioorg Med Chem Lett, 2011).

pIC50: −log10 of the molar value.

Sequence of Cannabinoid receptor 1 (P21554 whole entry): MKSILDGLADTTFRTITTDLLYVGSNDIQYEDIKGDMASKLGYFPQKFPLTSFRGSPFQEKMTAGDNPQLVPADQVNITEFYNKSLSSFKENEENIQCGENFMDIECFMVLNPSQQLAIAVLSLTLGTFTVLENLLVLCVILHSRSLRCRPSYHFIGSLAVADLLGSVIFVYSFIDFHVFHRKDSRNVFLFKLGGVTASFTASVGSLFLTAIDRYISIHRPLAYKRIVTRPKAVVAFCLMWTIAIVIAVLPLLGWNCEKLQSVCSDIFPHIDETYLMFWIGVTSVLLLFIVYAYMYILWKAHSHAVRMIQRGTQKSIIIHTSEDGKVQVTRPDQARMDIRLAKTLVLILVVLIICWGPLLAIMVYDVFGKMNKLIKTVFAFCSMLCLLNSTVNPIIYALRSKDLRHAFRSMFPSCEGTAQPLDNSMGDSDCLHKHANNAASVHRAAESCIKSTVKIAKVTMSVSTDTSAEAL

This experiment addresses Cannabinoid receptor 1 (Homo sapiens, UniProt P21554). Kind of experiment: Antagonist activity at CB1 receptor transfected in CHO cells expressing apoaequorin as a reporter for G-protein-coupled receptor-mediated calcium signaling by bioluminescence assay. The format is functional, cell-based.
With `CC[C@H]1C[C@@H]2C[C@@]3(C(=O)OC)c4[nH]c5ccc(OC)cc5c4[C@@H]4CN([C@@H]13)[C@H]2O4`, the pIC50 was 6.70. For the compound `CC[C@H]1C[C@@H]2C[C@@]3(C(=O)OC)c4[nH]c5ccc(OC)cc5c4[C@H]4O[C@@H]2N([C@@H]4O)[C@@H]13`, the pIC50 was 6.85.

Regarding `CC=C1CN(C)C2Cc3c([nH]c4ccccc34)C(c3cc4[nH]c5c(c4cc3OC)CCN3CC4CC(CC)C3C5(C(=O)OC)C4)CC1C2C(=O)OC` (stereo not drawn) [VOACAMINE], the pIC50 was 7.39.
